Experimental findings from US7960349B2 (Bristol-Myers Squibb Company, priority 2006, dated 2011) are described below.

One data set concerns ob/ob mice. The experiment in a line: Intraperitoneal glucose tolerance test (ipGTT) in ob/ob mice after sc injection. It is filed as in vivo, mouse. On the procedure:
(§1) Peptides were dissolved in an appropriate vehicle at a concentration in nmol/ml equivalent to the dose that was to be administered in nmol/kg so that each mouse would receive the same volume/weight of dosing solution. Male C57BL/6-ob/ob mice (10 weeks old) were randomized into groups of 6 mice per group based on fed plasma glucose and body weight. After an overnight fast, mice were weighed and placed in the experimental lab. After 30 min in the environment, the mice were bled via tail tip at −30 min and immediately injected subcutaneously (sc) with vehicle or the peptide dissolved in vehicle (0.1 ml solution/100 g body weight). At time 0 the mice were bled and then injected intraperitoneally with 50% glucose (2 g/kg) to initiate the intraperitoneal glucose tolerance test (ipGTT). The mice were bled 30, 60, 120 and 180 min after the glucose injection. Blood samples were drawn into potassium EDTA, placed on ice during the study and subsequently centrifuged for 10 min at 3000 rpm at 4° C. Plasma samples were diluted 11-fold for glucose analysis in the Cobas System. Another 5 μl plasma sample was diluted 5-fold with 20 μl of Sample Diluent (Insulin ELISA assay kit, Crystal Chem. Inc.) and stored at −20° C. for subsequent analysis using the Ultra Sensitive Mouse Insulin ELISA kit (Crystal Chem Inc.).

The nature of data set [1]: Exposure during ipGTT in ob/ob mice. The class given is in vivo, mouse. Conditions: sc injection. The method, then: as §1
Data set [2] can be described thus: Dog pharmacokinetic study. The class given is in vivo. On the procedure: The pharmacokinetic parameters of the Compounds of SEQ ID NO: 9, 118, 151 and 158 were determined in male beagle dogs (n=3-4, 14±1 kg). Following an overnight fast, each animal received the Compounds of SEQ ID NO: 9, 118, 151 and 158 either as an intravenous bolus via femoral vein (67 μg/kg) or by subcutaneous injection given at near the shoulder blades (67 μg/kg). Each animal received both intravenous and subcutaneous doses with a one-week washout between doses following a crossover design. The dosing vehicle for both routes of administration was propylene glycol:pH 7.4 phosphate buffer (50:50) or 0.2 M Tris (pH 8.0). Serial blood samples were collected in EDTA-containing microcentrifuge tubes at predose, 0.083, 0.25, 0.5, 0.75, 1, 2, 4, 6, 8, 24, and 30 hours post-dose after intravenous administration; at predose, 0.25, 0.5, 0.75, 1, 2, 4, 6, 8, 24, and 30 hours post-dose after subcutaneous administration. Approximately 0.3 mL of blood was collected at each time point. Blood samples were immediately centrifuged at 4° C. The obtained plasma was frozen with dry ice and stored at −20° C. Plasma drug levels were determined using the LC-MS/MS assay described below.
Plasma samples from the in vivo dog study were prepared for analysis by precipitating plasma proteins with two volumes of AcCN containing an internal standard. The samples were vortex mixed and the precipitated proteins were removed by centrifugation. The resulting supernatants were transferred to a 96-well plate and 10 μL were injected for TFC-LC/MS/MS analysis.
The TFC-HPLC system (Cohesive TX-1 Flux, Aria 2300 System) consisted of a loading pump, an eluting pump, and a CTC PAL autosampler (Cohesive Technologies, Franklin, Mass.). The columns used were Phenomenex Synergi Fusion-RP (C18, 2.0×50 mm, 4μ) (Phenomenex, Torrance, Calif.) as the analytical column and Turbo-Flow (TF) HTLC Cyclone column (0.5×50 mm) (Cohesive Technologies, Franklin, Mass.) as the extraction column for on-line sample processing. The mobile phase A consisted of 10 mM ammonium formate and 0.1% formic acid in water and mobile phase B consisted of 0.1% formic acid in AcCN. Turbo-Flow Chromatography was used to obtain a cleaner sample. A rapid gradient elution was used for analyte separation. The samples were injected onto the Turbo-Flow HTLC Cyclone column and analytes were separated from biological fluid components with using 100% H2O at 1.5 mL/min. The TF column was back flushed and analytes were back eluted from the TF to HPLC analytical column using a ramp to 60% B over 2 min and held there for 30 seconds at 0.3 mL/min to separate and to elute the analytes from the HPLC column into the mass spectrometer. Both columns were washed for an additional minute and then both columns were re-equilibrated at initial conditions.
The HPLC was interfaced to a Sciex API 4000 mass spectrometer (Applied Biosystems, Foster City, Calif.) and was equipped with a TurboIonspray ionization source. Ultra high purity nitrogen was used as the nebulizing and turbo-gas. The temperature of turbo-gas was set at 300° C. and the interface heater was set at 60° C. Selected Reaction Monitoring (SRM) was used for data acquisition. Multiple charged ion species, i.e. (M+2H)^2+ for Compound of SEQ ID NO: 158 were selected in Q1 and were collisionally dissociated with high purity nitrogen at a pressure of 3.5×10^−3 torr in Q2 to form specific product ions which were subsequently monitored in Q3. The ion transitions and voltages are summarized below (Table 4).
The standard curve concentrations, ranging from 1 to 1000 nM, were analyzed in duplicate. The curves were fitted with a linear regression weighted by reciprocal concentration […]. Quality control (QC) samples, prepared in blank matrix at the same concentrations as the standards were also analyzed in each analytical set. […]

The target of a further data set is T1, Human GLP-1 Receptor (Homo sapiens, UniProt P43220).
T1 construct: Full-length human glucagon-like peptide 1 receptor was stably expressed in CHO-K1 cells; expressed in transfected cells; host or cells: CHO-K1 (clone CHO-GLP1R-19)
T1 sequence (P43220 24-463): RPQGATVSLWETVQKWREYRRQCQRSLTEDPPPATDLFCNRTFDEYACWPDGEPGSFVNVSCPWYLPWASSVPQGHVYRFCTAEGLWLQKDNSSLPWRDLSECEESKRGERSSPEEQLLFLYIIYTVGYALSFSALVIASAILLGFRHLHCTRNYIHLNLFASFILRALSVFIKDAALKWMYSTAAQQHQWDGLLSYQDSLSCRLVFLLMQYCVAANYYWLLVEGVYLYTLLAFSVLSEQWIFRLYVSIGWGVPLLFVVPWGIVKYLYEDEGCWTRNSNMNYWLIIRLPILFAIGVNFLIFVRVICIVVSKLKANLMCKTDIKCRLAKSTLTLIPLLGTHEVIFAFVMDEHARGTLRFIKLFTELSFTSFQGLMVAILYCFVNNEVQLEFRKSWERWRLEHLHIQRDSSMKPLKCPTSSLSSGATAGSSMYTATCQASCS
The experiment in a line: Cyclic AMP determination in CHO cells expressing human GLP-1 receptor. It is filed as cell-based. The method, then: (§2) CHO-GLP-1R-19 cells (20,000 in 100 μl of media) were plated into each well of a 96-well tissue culture microtiter plate and incubated overnight in a 5% CO2 atmosphere at 37° C. On the day of the assay, cells were washed once with 100 μl of phosphate-buffered saline (PBS). A Biomek 2000 was used to serially dilute all peptides prior to beginning the assay. Serial dilutions were carried out in 100% DMSO.
(§3) 50 μl of each cAMP standard was added by hand and 70 μl of mix reagent (Amersham cAMP SPA kit) was added using the multidrop. […] This standard curve was used to convert CPM to pmol of cAMP.
(§4) Cell plates and peptide plates were loaded onto the Platemate. The media was aspirated from the wells and discarded. 100 uL per well of the peptide/buffer mixture were then added from the peptide plates to initiate the assay. After 30 min. of incubation the peptide/buffer was removed and 50 uL of the lysis reagent 1 solution was added per well. The plate was kept for one hour at RT or overnight if refrigerated and sealed.
(§5) Dose dependence for Compounds was determined at half-log concentrations in duplicate. […] A standard curve was determined using known amounts of cyclic AMP. […] The data were analyzed by nonlinear regression curve fitting (4 parameter sigmoidal dose-response curve) to determine the EC50 of the compounds.

For another data set, the target named is T2, Mouse GLP-1 Receptor (Mus musculus, UniProt O35659).
T2 construct: expressed in transfected cells; host or cells: CHO cells
T2 sequence (O35659 22-463): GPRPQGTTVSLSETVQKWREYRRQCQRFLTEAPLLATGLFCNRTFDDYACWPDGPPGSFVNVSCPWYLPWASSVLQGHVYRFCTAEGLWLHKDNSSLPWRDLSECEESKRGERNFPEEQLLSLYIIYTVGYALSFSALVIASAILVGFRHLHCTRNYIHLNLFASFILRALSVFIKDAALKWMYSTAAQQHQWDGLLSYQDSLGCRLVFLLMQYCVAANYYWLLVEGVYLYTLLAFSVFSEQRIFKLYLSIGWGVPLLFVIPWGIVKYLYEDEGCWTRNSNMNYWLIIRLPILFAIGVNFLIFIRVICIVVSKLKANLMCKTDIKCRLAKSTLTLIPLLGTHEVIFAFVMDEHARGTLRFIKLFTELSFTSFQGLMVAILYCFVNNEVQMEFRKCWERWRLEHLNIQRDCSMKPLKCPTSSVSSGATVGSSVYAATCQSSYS
The experiment in a line: Stimulation of cAMP synthesis in CHO cells expressing mouse GLP-1 receptor. The class given is cell-based. The method, then:
as §2, §3, §4, §5

Where a SMILES comes first, the peptide text is derived from it. [ ]: non-standard residue; d: D form. The star is where a group is joined. ξ: configuration not given here. Ala(6-(2-MePh)pyridin-3-yl) = Cc1ccccc1-c1ccc(C[C@H](N)C(=O)O)cn1; Phe(4-(2-Et-4-HO-Ph)) = CCc1cc(O)ccc1-c1ccc(C[C@H](N)C(=O)O)cc1; ξαMePhe(2-F) = CC(N)(Cc1ccccc1F)C(=O)O; ξαMeP = CC1(C(=O)O)CCCN1; Moc = COC(=O)*

Take `CCc1cc(O)ccc1-c1ccc(C[C@H](NC(=O)[C@H](CC(=O)O)NC(=O)[C@H](CO)NC(=O)[C@@H](NC(=O)C(C)(Cc2ccccc2F)NC(=O)[C@@H](NC(=O)CNC(=O)[C@H](CCC(=O)O)NC(=O)C2(C)CCCN2C(=O)[C@H](Cc2c[nH]cn2)NC(=O)OC)[C@@H](C)O)[C@@H](C)O)C(=O)N[C@@H](Cc2ccc(-c3ccccc3C)nc2)C(N)=O)cc1` (some centres unmarked) [SEQ ID NO: 158] (Moc-H[ξαMeP]EGT[ξαMePhe(2-F)]TSD[Phe(4-(2-Et-4-HO-Ph))][Ala(6-(2-MePh)pyridin-3-yl)]-NH2): the “plasma glucose AUC decreased” value in the data set with ob/ob mice (10 nmol/kg sc, ipGTT ob/ob mice) was found to be 66%. In the data set with ob/ob mice (sc injection, plasma glucose AUC in ipGTT), the “Potency in ob/ob mice ED50” value was “ED50 = 2 nmoles/kg”. For the same compound, in the data set with ob/ob mice (sc, ipGTT ob/ob mice, 0 to 180 or 210 min), the “effect on postprandial plasma glucose” value was “statistically significant decrease”. The “Exposure/dose during ipGTT in ob/ob mice” value in data set [1] amounted to 11 nM * h/nmol/kg. Moreover, the Vd in data set [2] (dog, plasma, 67 ug/kg, male beagle dogs, intravenous 67 μg/kg, read-out: Vss) was 0.15 ± 0.02 L/kg. In addition, in data set [2] (sc 67 μg/kg, vehicle 0.2 M Tris buffer (pH 8.0)), the “Exposure in dogs (sc@67 μg/kg)” value worked out at 1.467 µM·h. In addition, the EC50 (as a rule, the concentration at which the effect is half-maximal) on Human GLP-1 Receptor came to 0.018 nM. The Emax (commonly the maximal effect, on the per cent scale that the assay sets) on Human GLP-1 Receptor (CHO, percent of maximal GLP-1 stimulated activity, human GLP-1 receptor) was determined as 101 ± 6.7%; on Mouse GLP-1 Receptor (CHO, percent of maximal GLP-1 stimulated activity), 101 ± 7.2%. Also, the “Mean Hill” value at Human GLP-1 Receptor (human GLP-1 receptor) and on Mouse GLP-1 Receptor was 1.5 in each case.
